Assay results: article PMC10135050, “Neutralizing Carbapenem Resistance by Co-Administering Meropenem with Novel β-Lactam-Metallo-β-Lactamase Inhibitors” (Antibiotics, 2023)
Read-outs that look alike come from different tables or passages of the source.

Tests used:
[1] = Plasma drug concentrations in the in vivo efficacy study; conditions: male, mouse, 100 mg/kg IP every two hours, infected BALB/c mice
Description: A murine thigh infection model described by Michail et al. was performed with minor modifications. Male Bragg inbred albino c-strain (BALB/c) mice weighing 20–25 g (n = 90) were used in this study. Each of the three groups constituted n = 30 mice, with n = 6 mice receiving treatment every two hours. Prior to infection, mice were IP treated with 150 mg/kg cyclophosphamide on day one and 100 mg/kg on day four of the trial. This was performed to induce neutropenia in the mice. Neutropenia was confirmed by a neutrophil count of <100/mm^3. On day five of the trial, 0.1 mL inoculum containing 10^6–10^8 cfu/mL of K. pneumoniae NDM were IM injected into the right thigh of the mice to initiate infection. Meropenem monotherapy, BP2 + meropenem combination therapy, or normal saline was administered every two hours in an eight-hour treatment period. Mice were euthanized by isoflurane overdose at 2 h, 4 h, 6 h and 8 h post dosing. The right thigh muscle was then aseptically removed and homogenized in 5 mL PBS. Homogenates were spread onto Mueller–Hinton agar and MacConkey agar plates, followed by incubation at 35 °C for 24 h and enumeration of the cfu/mL.
A Shimadzu Nexera Series (Shimadzu Corporation, Kyoto, Japan) liquid chromatography system was coupled with Shimadzu LCMS-8050 tandem mass spectrometer (Shimadzu, Kyoto, Japan). The chromatographic separation was achieved using a Shim-Pack Velox SP-C18 column (100 mm × 2.1 mm, 2.7 µm particle size) with a gradient mobile phase comprised of Millipore water (0.1% v/v trifluoroacetic acid) (A) and Acetonitrile (0.1% v/v trifluoroacetic acid) (B). The gradient method started from 5 to 95% B in 8 min, then held at 95% B for up to 12 min; thereafter, it was brought back to 5% B at 12.1 min. The column was equilibration time was 2.9 min with a flow rate of 0.4 mL min^−1 and the column oven temperature at 40 °C. The injection volume was 25 µL, and the total run time of the method was 15 min. Quantitative and qualitative studies were conducted using MRM mode via an ESI interface, with the following source parameters: nitrogen nebulizer gas flow 3 L/min; heat gas 10 L/min and interface temperature of 300 °C. The precursor and product ions optimized were m/z 813.2→330.0 for BP2, m/z 384.50→68.25 for meropenem and m/z 350.50→304.40 for Ampicillin (IS). Results were analyzed using LabSolutions Insight LCMS. All data are expressed as a mean ± SD.
Figure 6 Plasma BP2 and meropenem concentrations over the eight-hour treatment period. BALB/c mice were infected intramuscularly (IM) in the right thigh with 10^6–10^8 K. pneumoniae NDM cfu/mL. Treatment was initiated two hours post infection with either S, M, or BP2. Four treatment doses were administered via intraperitoneal (IP) injection every two hours. Data are presented as a mean ± SD (n = 6). Meropenem-only (red triangle)—animals treated with meropenem only, Meropenem with BP2 (red circles)—meropenem concentration when animals were treated with the BP2 combination. BP2 with meropenem (green square)—concentration of BP2 when animals were treated with the meropenem combination.

[2] = tested on: Escherichia coli JAP (IMP-1); assay: MIC, broth microdilution and checkerboard assay; assay type: cell-based
Description: (§1) The Minimum Inhibitory Concentration (MIC) of meropenem BP2 was determined utilizing the broth microdilution assay, as described by the Clinical and Laboratory Standards Institute (CLSI) antimicrobial susceptibility guidelines. The mono-therapeutic effect of each antibiotic and MBLI was evaluated across a panel of MBL-producing Enterobacterales.
(§2) The drug susceptibility profile of meropenem in combination with BP2 was studied using the checkerboard assay. This assay was used to ascertain the effect of two drugs on antimicrobial resistance targeting CRE strains. The assay was performed according to the protocol described previously and was under CLSI antimicrobial susceptibility guidelines. Briefly, twofold dilutions of meropenem with each chelator were made in Cation-adjusted Mueller Hinton Broth (CAMHB) in a 96-well microtiter plate. A 0.5 McFarland-standardized bacterial inoculum was added to each well to obtain a final volume of 100 µL per well. Thereafter, plates were incubated at 37 °C for 18 h under aerobic conditions. The checkerboard assays were performed in triplicate. The MIC was determined as the lowest concentration at which no visible growth was present. The fractional inhibitory concentration index (FICI) was calculated for each combination according to the equation FICI = FICa (MIC of drug A in combination/MIC of drug A alone) + FICb (MIC of drug B in combination/MIC of drug B alone). The FICI was interpreted as follows: synergy, FICI ≤ 0.5; additive 0.5–1; indifference, […] FICI < 4; and antagonism, FICI ≥ 4 [61].

[3] = tested on: Escherichia coli FEK (NDM-4); assay: MIC, broth microdilution and checkerboard assay; assay type: cell-based
Description: as §1, §2

[4] = tested on: Providencia stuartii PSTU (NDM-1); assay: MIC, broth microdilution and checkerboard assay; assay type: cell-based
Description: as §1, §2

[5] = tested on: Enterobacter cloacae KAR (VIM-1); assay: MIC, broth microdilution and checkerboard assay; assay type: cell-based
Description: as §1, §2

[6] = tested on: Escherichia coli BM 14 (VIM-1); assay: MIC, broth microdilution and checkerboard assay; assay type: cell-based
Description: as §1, §2

[7] = tested on: Providencia Rettgeri IR38 (NDM-1); assay: MIC, broth microdilution and checkerboard assay; assay type: cell-based
Description: as §1, §2

[8] = tested on: Klebsiella pneumoniae ENNES (VIM-1); assay: MIC, broth microdilution and checkerboard assay; assay type: cell-based
Description: as §1, §2

[9] = tested on: Klebsiella pneumoniae 6852 (IMP-1); assay: MIC, broth microdilution and checkerboard assay; assay type: cell-based
Description: as §1, §2

[10] = tested on: Enterobacter cloacae BM 5 (IMP-1); assay: MIC, broth microdilution and checkerboard assay; assay type: cell-based
Description: as §1, §2

[11] = tested on: Escherichia coli DIH (VIM-19); assay: MIC, broth microdilution and checkerboard assay; assay type: cell-based
Description: as §1, §2

[12] = tested on: Klebsiella pneumoniae DIH (VIM-19); assay: MIC, broth microdilution and checkerboard assay; assay type: cell-based
Description: as §1, §2

[13] = tested on: Serratia marcescens (IMP-11); assay: MIC, broth microdilution and checkerboard assay; assay type: cell-based
Description: as §1, §2

[14] = tested on: Klebsiella pneumoniae TWA (IMP-8); assay: MIC, broth microdilution and checkerboard assay; assay type: cell-based
Description: as §1, §2

[15] = tested on: Escherichia coli TWA (IMP-8); assay: MIC, broth microdilution and checkerboard assay; assay type: cell-based
Description: as §1, §2

[16] = tested on: Enterobacter cloacae IR 386 (NDM-1); assay: MIC, broth microdilution and checkerboard assay; assay type: cell-based
Description: as §1, §2

[17] = tested on: Escherichia coli AUS 271 (NDM-1); assay: MIC, broth microdilution and checkerboard assay; assay type: cell-based
Description: as §1, §2

[18] = tested on: Enterobacter cloacae TWA (IMP-8); assay: MIC, broth microdilution and checkerboard assay; assay type: cell-based
Description: as §1, §2

[19] = tested on: Serratia marcescens BM 20 (VIM-2); assay: MIC, broth microdilution and checkerboard assay; assay type: cell-based
Description: as §1, §2

C[C@@H](O)[C@H]1C(=O)N2C(C(=O)O)=C(S[C@@H]3CN[C@H](C(=O)N(C)C)C3)[C@H](C)[C@H]12 [Meropenem]
concentration at 2 h [1]: 7060 ng/mL
concentration at 4 h [1]: 27500 ng/mL
concentration at 6 h [1]: 14900 ng/mL
concentration at 8 h [1]: 8840 ng/mL
MIC ([2]; E. coli JAP IMP-1, alone, read-out: MIC MEM Alone): 8 µg/mL
MIC ([3]; E. coli FEK NDM-4, alone, read-out: MIC MEM Alone): > 32 µg/mL
MIC ([4]; P. stuartii PSTU NDM-1, alone, read-out: MIC MEM Alone): 32 µg/mL
MIC ([5]; E. cloacae KAR VIM-1, alone, read-out: MIC MEM Alone): 4 µg/mL
MIC ([6]; E. coli BM 14 VIM-1, alone, read-out: MIC MEM Alone): 32 µg/mL
MIC ([7]; P. Rettgeri IR38 NDM-1, alone, read-out: MIC MEM Alone): 32 µg/mL
MIC ([8]; K. pneumoniae ENNES VIM-1, alone, read-out: MIC MEM Alone): > 32 µg/mL
MIC ([9]; K. pneumoniae 6852 IMP-1, alone, read-out: MIC MEM Alone): > 32 µg/mL
MIC ([10]; read-out: MIC MEM Alone): > 32 µg/mL
MIC ([11]; E. coli DIH VIM-19, alone, read-out: MIC MEM Alone): > 32 µg/mL
MIC ([12]; K. pneumoniae DIH VIM-19, alone, read-out: MIC MEM Alone): 32 µg/mL
MIC ([13]; S. marcescens IMP-11, alone, read-out: MIC MEM Alone): > 32 µg/mL
MIC ([14]; K. pneumoniae TWA IMP-8, alone, read-out: MIC MEM Alone): 8 µg/mL
MIC ([15]; E. coli TWA IMP-8, alone, read-out: MIC MEM Alone): 8 µg/mL
MIC ([16]; E. cloacae IR 386 NDM-1, alone, read-out: MIC MEM Alone): 32 µg/mL
MIC ([17]; E. coli AUS 271 NDM-1, alone, read-out: MIC MEM Alone): > 128 µg/mL
MIC ([18]; E. cloacae TWA IMP-8, alone, read-out: MIC MEM Alone): 0.125 µg/mL
MIC ([19]; S. marcescens BM 20 VIM-2, alone, read-out: MIC MEM Alone): > 32 µg/mL

CON=C(C(=O)NC1C(=O)N2C(C(=O)O)=C(COC(C)=O)CSC12)c1csc(NC(=O)CC(C(=O)OC)N2CCN(CC(=O)O)CCN(CC(=O)O)CC2)n1 (stereo in doubt) [BP2]
concentration at 2 h [1]: 2670 ng/mL
concentration at 4 h [1]: 6970 ng/mL
concentration at 6 h [1]: 4430 ng/mL
concentration at 8 h [1]: 3490 ng/mL
MIC ([2]; read-out: MIC BP2 Alone): > 256 µg/mL
MIC ([3]; read-out: MIC BP2 Alone): > 256 µg/mL
MIC ([4]; read-out: MIC BP2 Alone): > 256 µg/mL
MIC ([5]; read-out: MIC BP2 Alone): > 256 µg/mL
MIC ([6]; read-out: MIC BP2 Alone): > 256 µg/mL
MIC ([7]; read-out: MIC BP2 Alone): > 256 µg/mL
MIC ([8]; read-out: MIC BP2 Alone): > 256 µg/mL
MIC ([9]; read-out: MIC BP2 Alone): > 256 µg/mL
MIC ([10]; read-out: MIC BP2 Alone): > 256 µg/mL
MIC ([11]; read-out: MIC BP2 Alone): > 256 µg/mL
MIC ([12]; read-out: MIC BP2 Alone): > 256 µg/mL
MIC ([13]; read-out: MIC BP2 Alone): > 256 µg/mL
MIC ([14]; read-out: MIC BP2 Alone): > 256 µg/mL
MIC ([15]; read-out: MIC BP2 Alone): > 256 µg/mL
MIC ([16]; read-out: MIC BP2 Alone): > 256 µg/mL
MIC ([17]; read-out: MIC BP2 Alone): > 256 µg/mL
MIC ([18]; read-out: MIC BP2 Alone): > 256 µg/mL
MIC ([19]; read-out: MIC BP2 Alone): > 256 µg/mL
